Measured values published in ChEMBL document CHEMBL3431459, “Roche carnitine palmitoyltransferase modulator screening data (supplementary data associated with the publication CHEMBL2216752)”.
≈ marks a conversion by molar mass, not a printed value.

Experiments:
[1] = target: T1, Carnitine O-palmitoyltransferase 2, mitochondrial (Homo sapiens, UniProt P23786); assay: (§1) SUPPLEMENTARY: Inhibition of Carnitine palmitoyltransferase 2
T1 sequence (P23786 whole entry): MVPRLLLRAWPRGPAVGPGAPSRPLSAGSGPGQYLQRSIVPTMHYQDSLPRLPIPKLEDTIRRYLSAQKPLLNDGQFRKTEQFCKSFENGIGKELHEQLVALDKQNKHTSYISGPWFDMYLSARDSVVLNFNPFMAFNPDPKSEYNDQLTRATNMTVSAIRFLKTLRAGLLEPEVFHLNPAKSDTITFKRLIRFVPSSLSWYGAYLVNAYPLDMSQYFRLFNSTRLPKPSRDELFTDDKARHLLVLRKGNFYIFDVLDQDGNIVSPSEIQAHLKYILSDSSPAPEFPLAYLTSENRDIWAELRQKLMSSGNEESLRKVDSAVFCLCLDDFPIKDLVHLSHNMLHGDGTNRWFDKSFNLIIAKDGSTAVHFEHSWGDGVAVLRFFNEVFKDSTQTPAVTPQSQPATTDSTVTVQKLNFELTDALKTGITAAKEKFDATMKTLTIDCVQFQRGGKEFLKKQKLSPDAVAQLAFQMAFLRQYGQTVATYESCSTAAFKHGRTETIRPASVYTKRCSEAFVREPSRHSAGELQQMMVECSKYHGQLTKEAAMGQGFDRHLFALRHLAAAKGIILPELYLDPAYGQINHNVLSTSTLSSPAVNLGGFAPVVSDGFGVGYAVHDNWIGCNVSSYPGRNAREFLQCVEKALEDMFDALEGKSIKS

[2] = target: T2, Carnitine O-palmitoyltransferase 2, mitochondrial (Rattus norvegicus, UniProt P18886); assay: as §1
T2 sequence (P18886 whole entry): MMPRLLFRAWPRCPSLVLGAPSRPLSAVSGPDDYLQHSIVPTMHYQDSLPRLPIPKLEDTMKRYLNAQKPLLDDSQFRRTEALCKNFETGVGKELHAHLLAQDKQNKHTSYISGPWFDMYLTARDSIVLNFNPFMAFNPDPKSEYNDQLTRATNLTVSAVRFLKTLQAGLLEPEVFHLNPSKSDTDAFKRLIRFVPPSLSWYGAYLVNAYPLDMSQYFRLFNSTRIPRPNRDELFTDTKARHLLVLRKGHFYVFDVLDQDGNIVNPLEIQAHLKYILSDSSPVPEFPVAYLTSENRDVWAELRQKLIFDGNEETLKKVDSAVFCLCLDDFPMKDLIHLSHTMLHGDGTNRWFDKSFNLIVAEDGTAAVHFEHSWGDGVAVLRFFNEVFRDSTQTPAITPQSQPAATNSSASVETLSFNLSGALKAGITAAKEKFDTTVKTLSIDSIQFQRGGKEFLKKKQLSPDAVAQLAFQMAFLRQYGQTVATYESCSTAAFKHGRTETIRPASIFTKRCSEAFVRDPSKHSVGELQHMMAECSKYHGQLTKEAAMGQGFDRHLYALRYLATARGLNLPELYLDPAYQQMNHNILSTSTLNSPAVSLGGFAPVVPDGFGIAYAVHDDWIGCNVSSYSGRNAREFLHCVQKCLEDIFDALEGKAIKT

[3] = SUPPLEMENTARY: Lyophilisation Solubility Assay (LYSA); assay type: physicochemical; settings: read-out: Kinetic_solubility
[4] = SUPPLEMENTARY: Lipophilicity (log D) Determination by high-throughput shake-flask; assay type: physicochemical; settings: octanol/water
[5] = target: T3, Carnitine O-palmitoyltransferase 1, liver isoform (Homo sapiens, UniProt P50416); assay: (§2) SUPPLEMENTARY: Inhibition of Carnitine palmitoyltransferase 1, liver isoform
T3 sequence (P50416 whole entry): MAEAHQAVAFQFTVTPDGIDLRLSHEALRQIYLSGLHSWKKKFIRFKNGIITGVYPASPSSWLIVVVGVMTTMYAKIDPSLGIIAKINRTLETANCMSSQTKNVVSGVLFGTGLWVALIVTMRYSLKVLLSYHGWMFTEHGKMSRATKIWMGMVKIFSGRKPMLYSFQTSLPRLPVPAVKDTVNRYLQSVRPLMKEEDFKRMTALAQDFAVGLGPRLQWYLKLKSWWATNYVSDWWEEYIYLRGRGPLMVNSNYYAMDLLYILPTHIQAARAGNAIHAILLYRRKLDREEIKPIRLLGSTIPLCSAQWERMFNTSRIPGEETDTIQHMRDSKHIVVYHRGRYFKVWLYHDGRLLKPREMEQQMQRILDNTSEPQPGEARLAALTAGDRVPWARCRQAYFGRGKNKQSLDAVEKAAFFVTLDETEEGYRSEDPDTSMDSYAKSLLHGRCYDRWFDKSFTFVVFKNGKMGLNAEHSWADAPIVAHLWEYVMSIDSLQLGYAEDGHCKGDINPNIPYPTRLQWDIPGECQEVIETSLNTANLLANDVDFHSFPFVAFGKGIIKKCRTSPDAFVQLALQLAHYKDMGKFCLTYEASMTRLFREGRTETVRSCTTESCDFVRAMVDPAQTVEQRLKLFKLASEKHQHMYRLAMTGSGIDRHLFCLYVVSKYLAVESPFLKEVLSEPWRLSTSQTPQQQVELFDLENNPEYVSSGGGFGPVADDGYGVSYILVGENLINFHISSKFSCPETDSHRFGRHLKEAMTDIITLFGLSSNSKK

[6] = target: T4, Carnitine O-palmitoyltransferase 1, liver isoform (Rattus norvegicus, UniProt P32198); assay: as §2
T4 sequence (P32198 whole entry): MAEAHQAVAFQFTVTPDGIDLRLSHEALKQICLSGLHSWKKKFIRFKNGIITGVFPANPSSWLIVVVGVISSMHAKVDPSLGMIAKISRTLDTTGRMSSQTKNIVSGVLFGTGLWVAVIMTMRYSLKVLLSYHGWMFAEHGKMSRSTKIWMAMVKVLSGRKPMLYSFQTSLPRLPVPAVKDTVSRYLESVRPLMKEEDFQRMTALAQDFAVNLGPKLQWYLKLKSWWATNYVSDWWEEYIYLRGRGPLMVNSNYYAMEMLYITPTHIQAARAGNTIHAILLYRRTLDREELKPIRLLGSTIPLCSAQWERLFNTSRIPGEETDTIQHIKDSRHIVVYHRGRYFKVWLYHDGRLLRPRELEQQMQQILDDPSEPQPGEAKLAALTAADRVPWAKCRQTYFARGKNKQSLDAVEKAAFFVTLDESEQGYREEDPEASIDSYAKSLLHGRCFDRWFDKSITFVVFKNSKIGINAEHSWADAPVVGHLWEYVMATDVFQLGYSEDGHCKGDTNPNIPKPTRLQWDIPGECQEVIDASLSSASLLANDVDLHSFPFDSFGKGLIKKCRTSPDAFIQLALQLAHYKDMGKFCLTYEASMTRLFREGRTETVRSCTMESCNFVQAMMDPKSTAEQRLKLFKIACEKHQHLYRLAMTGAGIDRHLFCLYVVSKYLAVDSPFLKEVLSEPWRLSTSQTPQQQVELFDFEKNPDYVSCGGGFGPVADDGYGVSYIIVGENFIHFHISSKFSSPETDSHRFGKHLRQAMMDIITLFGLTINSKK

[7] = target: T5, Carnitine O-palmitoyltransferase 1, muscle isoform (Homo sapiens, UniProt Q92523); assay: SUPPLEMENTARY: Inhibition of Carnitine palmitoyltransferase 1, muscle isoform; set-up: species or system Muscle tissue
T5 sequence (Q92523 whole entry): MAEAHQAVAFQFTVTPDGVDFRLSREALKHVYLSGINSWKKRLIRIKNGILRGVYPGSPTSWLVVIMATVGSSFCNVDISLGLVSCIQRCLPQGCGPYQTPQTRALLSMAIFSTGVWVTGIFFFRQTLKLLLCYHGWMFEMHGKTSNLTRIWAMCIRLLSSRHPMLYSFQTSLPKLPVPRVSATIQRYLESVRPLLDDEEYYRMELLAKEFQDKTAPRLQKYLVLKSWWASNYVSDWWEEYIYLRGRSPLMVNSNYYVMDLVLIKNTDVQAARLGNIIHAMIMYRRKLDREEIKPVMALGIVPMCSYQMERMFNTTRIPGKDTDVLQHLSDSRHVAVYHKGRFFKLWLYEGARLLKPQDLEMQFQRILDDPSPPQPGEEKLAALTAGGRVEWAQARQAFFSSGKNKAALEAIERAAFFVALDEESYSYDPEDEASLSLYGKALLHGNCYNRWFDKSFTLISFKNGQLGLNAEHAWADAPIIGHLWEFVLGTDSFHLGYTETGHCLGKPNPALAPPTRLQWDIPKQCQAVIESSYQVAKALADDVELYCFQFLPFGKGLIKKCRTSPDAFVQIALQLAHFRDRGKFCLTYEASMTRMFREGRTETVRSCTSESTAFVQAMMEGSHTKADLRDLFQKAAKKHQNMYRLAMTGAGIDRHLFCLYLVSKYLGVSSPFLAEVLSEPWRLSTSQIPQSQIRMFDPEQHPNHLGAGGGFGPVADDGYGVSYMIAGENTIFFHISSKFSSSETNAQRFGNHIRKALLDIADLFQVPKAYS

[8] = SUPPLEMENTARY: PAMPA permeability assay; assay type: physicochemical; settings: read-out: Permeability

IC50 [1] | IC50 [2] | solubility kinetic [3] | logD [4] | IC50 [5] | IC50 [6] | IC50 [7] | Papp [8] | Structure (SMILES)
43.5 µM | 41.2 µM | 78 µg/mL (≈ 181 µM) | 3.29 | 0.165 µM | 0.194 µM | 10.4 µM | 1.75 ×10⁻⁶ cm/s | O=C(COc1ccncc1)N1CCCC[C@@H]1c1nnc(-c2cccc(C(F)(F)F)c2)[nH]1
> 100 µM | > 100 µM | 63 µg/mL (≈ 145 µM) | 2.75 | 0.201 µM | 0.282 µM | 43.4 µM | 2.93 ×10⁻⁶ cm/s | CC(=O)Nc1cccc(-c2nc([C@H]3CCCCN3C(=O)COc3ccccc3)n(C)n2)c1
1.5 µM | 2.5 µM | 3 µg/mL (≈ 6.4 µM) | 2.54 | 0.0188 µM | 0.0112 µM | 0.92 µM | 1.01 ×10⁻⁶ cm/s | Cn1cc(S(=O)(=O)c2cccc(Cl)c2)c2cc(C(=O)Nc3ccc(C(=O)O)cc3)ccc21
24.3 µM | 33.6 µM | 109 µg/mL (≈ 270 µM) | 2.36 | 0.0902 µM | 0.238 µM | 35.5 µM | 3.53 ×10⁻⁶ cm/s | O=C(COc1ccccc1)N1CCCC[C@@H]1c1noc(-c2cnc3[nH]cnc3c2)n1
> 100 µM | > 100 µM | < 1 µg/mL | 3.49 | 0.108 µM | 0.191 µM | > 100 µM | 1.79 ×10⁻⁶ cm/s | CC(=O)Nc1cccc(C#C[C@H]2CCCCN2C(=O)COc2ccccc2)c1
> 100 µM | > 100 µM | 113 µg/mL (≈ 268 µM) | 2.54 | 0.0509 µM | 0.327 µM | > 100 µM | 5.4 ×10⁻⁶ cm/s | CC(=O)Nc1cc(-c2nc([C@H]3CCCCN3C(=O)COc3ccccc3)no2)ccn1
> 100 µM | > 100 µM | 31 µg/mL (≈ 61.5 µM) | 0.72 | 0.125 µM | 0.0759 µM | 1.72 µM | 1.53 ×10⁻⁶ cm/s | COc1ccc(Cl)cc1CN1C(=O)CSc2ccc(C(=O)Nc3nc(CC(=O)O)cs3)cc21
3.45 µM | 16.6 µM | 60 µg/mL (≈ 119 µM) | 0.32 | 0.0597 µM | 0.105 µM | 38.6 µM | 2.16 ×10⁻⁶ cm/s | COc1ccc(Cl)cc1S(=O)(=O)N1COCc2ccc(C(=O)Nc3ccc(C(=O)O)cc3)cc21
> 100 µM | > 100 µM | 100 µg/mL (≈ 193 µM) | -0.23 | 0.187 µM | 0.483 µM | 3.28 µM | 1.39 ×10⁻⁶ cm/s | COc1ccc(Cl)cc1S(=O)(=O)N1COCc2ccc(C(=O)Nc3ccc(CC(=O)O)cc3)cc21
> 100 µM | > 100 µM | 7 µg/mL (≈ 13.4 µM) | -0.47 | 0.054 µM | 0.0829 µM | 1.38 µM | 1.31 ×10⁻⁶ cm/s | COc1ccc(Cl)cc1S(=O)(=O)N1COCc2ccc(C(=O)Nc3nc(CC(=O)O)cs3)cc21
> 100 µM | > 100 µM | < 1 µg/mL | 3.2 | 0.0858 µM | 1.43 µM | 29.7 µM | 5.37 ×10⁻⁶ cm/s | O=C(COc1ccccc1)N1CCCC[C@@H]1c1noc(C2(C(F)(F)F)CC2)n1
